{
  "source": "patent US20060051787A1",
  "about": "“Quantitative PCR for analysis of DNA damage induced by PGHS-2 (COX-2) or other factors” (priority 2004, published 2006)",
  "key": {"8.8 kb mitochondrial DNA": {"tested_on": "8.8 kb mitochondrial DNA", "test": "QPCR (14 cycles) followed by real-time PCR DNA damage analysis in XPA cells", "assay_type": "cell-based, human", "description": "QPCR products of 2.3 kb and 8.8 kb mitochondrial DNA were quantitated by real-time PCR with primers to produce a 112 bp fragment using the ABI PRISM® 7700 (Applied Biosystems). DNA replication was monitored by addition of a double-stranded DNA binding dye, SYBR® Green I (Applied Biosystems).\nReal-time PCR primers selected from the […].\nConcentrations of 8.8 kb PCR products were obtained after treatment of PGHS-2-expressing DNA damage repair deficient cells with t-BOOH (PGHS-2 substrate) and BPD (a premutagen) using a standard curve. The standard curve was obtained by real-time PCR with various concentrations of the 8.8 kb DNA.\nQPCR of a 16.2 kb, 8.8 kb and 2.3 kb mitochondrial DNA and 2.3 kb p53 and 0.5 kb β-globin nuclear DNA were carried out using biotinylated nucleotide primers. The reaction mixture contained 15 ng of template DNA, 1.2 mM MgSO4, 0.2 mM deoxynucleotide triphosphates, 0.2 μM biotinylated primers, and 1 unit of Platinum Pfx DNA polymerase (Life Technologies). Alternatively, the QPCR was carried out with the GeneAmp XL PCR kit (PerkinElmer/Roche) which contains rTth DNA polymerase XL and XL PCR buffer as previously described (9).\nThe PCR was initiated with a 90° C. hot-start addition of the polymerase. Initial denaturation was carried out for 1 min at 94° C. followed by cycles of denaturation at 94° C. for 15 sec, primer extension and annealing at 66° C. for 12 min and final extension at 72° C. for 10 minutes. The DNA product was separated by electrophoresis on 1% agarose gel and visualized by ethidium bromide staining.\nBest fitting real-time PCR primers were selected using Primer Express program (Applied Biosystems). The PCR primers selected for a real-time PCR were used to replicate 112 bp of PCR for both 8.8 kb and 2.3 kb mitochondrial DNA. The primer binding sites are located in the middle 2.1 kb section (the missing part in 6.7 kb internal control) of 8.8 kb fragment. […] The real-time PCR primers for 112 bp product (Tm, 79° C.) are […] […]\nStandard curve for real-time PCR analysis was obtained with the 8.8 kb standards ranging from 0.012 to 1200 pg. Concentrations of the 8.8 kb DNA preparation were spectrophotometrically measured. […] Using the standard curve to obtain relationship of log concentrations of various standards and Ct, QPCR product levels of the samples were calculated.\nReal-time PCR analysis was carried out and specificity of the real-time PCR of the 8.8 kb fragment was analyzed by (a) agarose gel electrophoresis of 40 cycle replicated 112 bp real-time PCR product and (b) melting curve of the 112 bp product. […]\nSingle 112 bp real-time PCR product was detected in each sample and a sharp melting curve at 79° C., which agreeded with the theoretical Tm, was obtained. […]"}, "[1]": {"tested_on": "XPA Cells #32 (PGHS-/neo+)", "test": "Cytotoxicity: colony-forming ability of negative control XPA cells", "assay_type": "cell-based, human", "settings": "treated two hours, incubated 10 days", "description": "(§1) XPA cells #12 (PGHS^+/neo^+) and #32 (PGHS^−/neo^+) were selected for cytotoxicity and mutagenicity assays. Cytotoxicity assays were carried out by assaying the loss of colony-forming ability as previously described (1).\n(§2) Cells were treated as follows: (a) no treatment, (b) 100 μM arachidonic acid (AA), (c) 200 μM AA, (d) 5 μM benzo(a)pyrene-7,8-dihydrodiol (BPD), (e) 5 μM BPD+100 μM AA, (f) 5 μM BPD+200 μM AA, (g) 100 μM butylated hydroxyanisole (BHA), (h) 100 μM BHA+5 μM BPD+100 AA and (i) 100 μM BHA+5 μM BPD+200 μM AA. BPD was dissolved in tetrahydrofuran.\n(§3) Cytotoxicity of environmental toxicants to PGHS-2^+/neo^+ (PGHS-2-dependent) XPA and wild type cells were assayed by measuring colony-forming ability. Mutagenicity of the chemical was assayed by measuring induction of 6-thioguanine resistance of the cells, which was a result of mutation of the cells to the HPRT-phenotype.\n(§4) Cytotoxicity assays were carried out by assaying the loss of colony-forming ability. Briefly, after harvesting, cells were plated at a cloning density of 600 cells/well in six-well plates and incubated for 7-12 days. The colonies were washed with PBS, fixed with methanol, stained with 0.04% methylene blue, and counted."}, "[2]": {"tested_on": "XPA human skin fibroblast cell line which expressed cytochrome P450 1A1", "settings": "by an endogenously formed metabolite of BPD; cited from earlier work"}, "[3]": {"tested_on": "XPA Cells #12 (PGHS+/neo+)", "test": "Cytotoxicity: colony-forming ability of PGHS-2 expressing XPA cells", "assay_type": "cell-based, human", "settings": "for Colony Number (% of Control): treated two hours, incubated 10 days", "description": "as §1, §2, §3, §4"}, "[4]": {"tested_on": "16.2 kb mitochondrial fragment", "settings": "cited from earlier work"}, "[5]": {"tested_on": "17.7 kb fragment of the nuclear beta-globin gene", "settings": "cited from earlier work"}, "[6]": {"tested_on": "16.2 kb mitochondrial DNA", "test": "QPCR DNA damage analysis in XPA cells #12", "assay_type": "cell-based, human", "settings": "0.5 mM t-BOOH; 3 hours; 26 cycles; FIG. 5", "description": "Panel A, ethidium bromide staining of biotinylated mitochondrial DNA fragments (16.2 kb), Panel B, visualization of the biotinylated mitochondrial DNA fragments by chemiluminescent assay (ECL) system, Panel C, a negative control, ethidium bromide staining of biotinylated β-globin (0.55 kb) DNA fragments and Panel D, visualization of the biotinylated β-globin DNA fragments by an ECL system.\nLane 1, bp standards, lanes 2 and 3, cells treated with 1 mM t-BOOH+solvent for BPD (tetrahydrofuran), lanes 4 and 5, cells treated with 1 mM t-BOOH+5 μM BPD, lanes 6 and 7, cells treated with solvent for AA (ethanol), lanes 8 and 9, cells treated with 100 μM AA and lanes 10 and 11, cells treated with 100 μM AA+5 μM BPD. Cells were treated for 3 hours at 37° C., DNA was isolated and QPCRs were carried out using biotinylated nucleotide primers. […]\nDNA damage repair deficient XPA cells #12 (PGHS-2+) were grown and cells were treated for three hours at 37° C. with 0.5 mM or 1 mM t-BOOH with or without 5 μM to 15 μM BPD. […] DNA fragments were transferred to a nitrocellulose membrane and visualized by a streptavidin-horseradish peroxidase/chemiluminescent (ECL) system followed by quantitation with a densitometer. Visualization of the DNA fragments by the ECL system amplified intensity of each DNA band and made it possible to quantitate each DNA band using a densitometer. […]"}, "[7]": {"settings": "200 μM for 15 minutes, in 1.5 hours"}, "[8]": {"settings": "200 μM for 60 minutes, in 3.5 hours"}},
  "note": "“And” between values parts separate entries of the source, which are not always exact repeats. Identical values can stand only once. Like-named read-outs stand apart in the source and are kept apart here.",
  "data": [
    {"smiles": "O[C@H]1C=Cc2c(cc3ccc4cccc5ccc2c3c45)[C@@H]1O", "note": "(relative stereo) [BPD, benzo(a)pyrene-trans-7,8-dihydrodiol]", "values": [
      {"measurement": "% mean value of control, 112.47 pg", "setting": "8.8 kb mitochondrial DNA; 5 mM BPD, samples 1 and 2", "value": "93.1 ± 2.7% and 111.9 ± 2.3%"},
      {"measurement": "pg DNA after 14 cycles of first PCR", "setting": "8.8 kb mitochondrial DNA; 5 mM BPD, samples 1 and 2 = separate cell culture experiments", "value": "104.71 ± 3.02 pg and 125.89 ± 2.59 pg"},
      {"measurement": "Colony Number (% of Control)", "setting": "[1]; 5 μM BPD", "value": "88.0 ± 3.3 % of Control"},
      {"measurement": "mutation frequencies versus wild type cell line", "setting": "[2]", "value": "approximately three-fold higher mutation frequencies"},
      {"measurement": "Colony Number (% of Control)", "setting": "[3]; 5 μM BPD", "value": "214.3 ± 7.1 % of Control"},
      {"measurement": "colony number (text summary of Table 1)", "setting": "[3]; treatment for two hours", "value": "dramatically increased colony number"}
    ]},
    {"smiles": "CCCCC/C=C\\C/C=C\\C/C=C\\C/C=C\\CCCC(=O)O", "note": "[AA, arachidonic acid]", "values": [
      {"measurement": "Colony Number (% of Control)", "setting": "[1]; 100 μM AA", "value": "70.1 ± 0.6 % of Control"},
      {"measurement": "Colony Number (% of Control)", "setting": "[1]; 200 μM AA", "value": "72.0 ± 6.2 % of Control"},
      {"measurement": "colony number (text summary of Table 1)", "setting": "[3]", "value": "dramatically increased colony number"},
      {"measurement": "Colony Number (% of Control)", "setting": "[3]; 100 μM AA", "value": "133.3 ± 12.6 % of Control"},
      {"measurement": "Colony Number (% of Control)", "setting": "[3]; 200 μM AA", "value": "140.5 ± 8.3 % of Control"}
    ]},
    {"smiles": "COc1ccc(O)c(C(C)(C)C)c1", "note": "[BHA, butylated hydroxyanisole]", "values": [
      {"measurement": "Colony Number (% of Control)", "setting": "[1]; 100 μM BHA", "value": "96.0 ± 3.8 % of Control"},
      {"measurement": "Colony Number (% of Control)", "setting": "[3]; 100 μM BHA", "value": "211.9 ± 4.8 % of Control"},
      {"measurement": "colony number (text summary of Table 1)", "setting": "[3]; treatment for two hours", "value": "dramatically increased colony number"}
    ]},
    {"smiles": "OO", "note": "[hydrogen peroxide]", "values": [
      {"measurement": "repair of DNA damage", "setting": "[4]; [7]", "value": "completely repaired"},
      {"measurement": "repair of DNA damage", "setting": "[4]; [8]", "value": "no repair"},
      {"measurement": "level of PCR products of the mitochondrial fragment relative to that of the nuclear beta-globin gene", "setting": "[4]; 200 and 400 μM for an hour", "value": "20%-30%"},
      {"measurement": "repair of DNA damage", "setting": "[5]; [7]", "value": "completely repaired"},
      {"measurement": "repair of DNA damage", "setting": "[5]; [8]", "value": "complete DNA repair"}
    ]},
    {"smiles": "CC(C)(C)OO", "note": "[t-BOOH, tert-butyl hydroperoxide]", "values": [
      {"measurement": "% mean value of control, 112.47 pg", "setting": "8.8 kb mitochondrial DNA; 0.5 mM t-BOOH, samples 1 and 2", "value": "70.6 ± 2.0% and 46.7 ± 1.9%"},
      {"measurement": "pg DNA after 14 cycles of first PCR", "setting": "8.8 kb mitochondrial DNA; 0.5 mM t-BOOH, samples 1 and 2", "value": "79.40 ± 2.24 pg and 52.48 ± 2.19 pg"},
      {"measurement": "16.2 kb PCR product level", "setting": "[6]", "value": "−50 % of control"}
    ]}
  ]
}
